Assay results published in patent US6025365A, “Chelerythrine and radiation combined tumor therapy” (Arch Development Corp., priority 1997, dated 2000).

Assays:
SQ-20B cells = test: Viability by propidium iodide exclusion and FACS; conditions: 2.5 μM chelerythrine and 8 Gy
Description: Cells, 2.5-3.5×10^5, were cultured in 24-well tissue culture plates for all experiments following standard procedures as previously described (Chmura et al., 1996a; 1996b). Cells were treated with varying concentrations of chelerythrine, incubated for 30 minutes at 37° C. and then irradiated. Radiation for all samples was delivered using a ^60 Co-irradiator (Gammacell 220, Atomic Energy of Canada) at a dose rate of 2.0 Gy/sec. After the indicated time points, cells were harvested, washed once in PBS, and resuspended in PBS containing […] propidium iodide. […] Cells undergoing apoptosis also shrink in size. Cells were analyzed via flow cytometry (FACS) following standard procedures as described in (Chmura et al., 1996a; 1996b) on a FACScan (Becton-Dickson) using Lysis II software.

acidic sphingomyelinase = test: Mixed micellar assay, acidic sphingomyelinase activity in treated SQ-20B cells; assay type: cell-based, human; conditions: 5 μM chelerythrine 30 minutes then 10 Gy; within 5 minutes of IR
Description: (§1) FIG. 5A. […] The mixed micellar assay for sphingomyelinase activity was used to quantitate increased enzymatic activity.
(§2) The mixed micellar sphingomyelinase assay using ^[14] C labeled sphingomyelin was performed as described (Wiegmann et al., 1994) with minor modifications as described herein. Exponentially growing cells 2×10^7 were treated, collected, and lysed in 200 μl of neutral buffer (20 mM Hepes, pH 7.4; 10 mM MgCl2, 2 mM EDTA, 5 mM DTT, […], 10 mM b-glycerolphosphate, 750 μM ATP, 1 mM PMSF, Leupeptin, Pepstatin, 2% Triton X-100) or an acid buffer (pH=5.5, 2% Triton X-100, 1 mM PMSF, Leupeptin, Pepstatin). After incubation for 5 minutes at 4° C., cells were homogenized by sonication and cell debris were removed by low speed centrifugation (800×g). The protein concentration was measured using the BioRad protein assay system (BioRad). Protein (50 μg) was incubated for 2 hours at 37° C. in a buffer (1 ml final volume) containing 20 mM HEPES, 1 mM MgCl2, and 0.9 μl [N-methyl-^14 C sphingomyelin].

WEHI-231 cells = test: Sphingomyelin mass by lipid extraction / TLC; assay type: cell-based, murine; conditions: 10 μM chelerythrine, 60 minutes
Description: FIG. 7A. Inhibition of PKC causes an increase in ceramide production through the activation of a neutral sphingomyelinase and decreases in sphingomyelin levels. Ceramide production was quantitated using the DAG kinase assay for WEHI-231 JM cells and total lipid extraction was used to assay sphingomyelin mass. Following addition of 10 μM chelerythrine, cells were lysed at the appropriate time points as described herein. Each data point represents the average percentage change in ceramide or sphingomyelin generation from baseline derived from at least 8 independent studies for all time points with the exception of those marked with * (n=4). Standard deviations depicted by error bars.
FIG. 7B. […] Ceramide production and sphingomyelin mass was quantitated identical to that for chelerythrine. Cells were lysed 2 hours following the addition of 250 nM calphostin C. […]
Cells were prelabeled with [^3 H] palmitate (10 μCi/ml) for 24 hours to isotopic equilibrium in 15 ml glass tubes to minimize changes in cellular ceramide and sphingomyelin due to handling and changing of media (Borchardt et al., 1994). […] Autoradiographs were quantitated using an Epson 1200 c 30 bit scanner and NIH Image software (public domain program developed at the NIH and available from the Internet via FTP from zippy.nimh.nih.gov). […]

neutral sphingomyelinase = test: Mixed micellar assay, neutral sphingomyelinase activity in treated SQ-20B cells; assay type: cell-based, human; conditions: 5 μM chelerythrine 30 minutes then 10 Gy; within 5 minutes of IR
Description: as §1, §2

[1] = Acute lethality / tolerability in mice

In the case of `COc1ccc2c(c[n+](C)c3c4cc5c(cc4ccc23)OCO5)c1OC` [chelerythrine, 1,2-dimethoxy-12-methyl[1,3]benzodioxolo[5,6-c]phenanthridinium], the “decrease in cell survival” value (SQ-20B cells) is reported as 85%, the “acidic sphingomyelinase activity, x-rays and chelerythrine” value (acidic sphingomyelinase) is reported as “about 170 % of control” and the sphingomyelin mass (WEHI-231 cells) is reported as “about 55 % of control”. The “neutral sphingomyelinase activity, x-rays and chelerythrine” value (neutral sphingomyelinase) was “about 200 % of control”, the health of animals ([1]; all treatment groups, throughout the xenograft study) was “appeared healthy throughout the study” and the LD50 ([1]; mouse, in vivo, ip) was 25 mg/kg.
